Assay results from patent US8263606B2 (Xenon Pharmaceuticals Inc., priority 2008, dated 2012).

How the values were obtained:
[1] = tested on: sodium channel; assay: Guanidine influx assay (14C-guanidine radiotracer flux, in vitro); assay type: cell-based, human or rat; settings: guanidine influx assay using a known cell line that expresses a sodium channel
In short: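 Cells stably expressing human or rat sodium channels (~100,000/well, 20–24 h) were exposed in low-sodium choline buffer to test agent plus aconitine activator and 14C-guanidine at ambient temperature. Intracellular 14C-guanidine was counted by scintillation; IC50 fitted by 4-parameter logistic over half-dilutions around 1 μM.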

[2] = target: CYP3A4 (Homo sapiens, UniProt P08684); assay: Cytochrome P450 (CYP450) Inhibition Assay, CYP3A4 (Vivid fluorescence, BOMCC substrate); settings: human, P450 Baculosomes (recombinant CYP3A4), probe BOMCC (Vivid substrate)
Sequence of CYP3A4 (P08684 whole entry): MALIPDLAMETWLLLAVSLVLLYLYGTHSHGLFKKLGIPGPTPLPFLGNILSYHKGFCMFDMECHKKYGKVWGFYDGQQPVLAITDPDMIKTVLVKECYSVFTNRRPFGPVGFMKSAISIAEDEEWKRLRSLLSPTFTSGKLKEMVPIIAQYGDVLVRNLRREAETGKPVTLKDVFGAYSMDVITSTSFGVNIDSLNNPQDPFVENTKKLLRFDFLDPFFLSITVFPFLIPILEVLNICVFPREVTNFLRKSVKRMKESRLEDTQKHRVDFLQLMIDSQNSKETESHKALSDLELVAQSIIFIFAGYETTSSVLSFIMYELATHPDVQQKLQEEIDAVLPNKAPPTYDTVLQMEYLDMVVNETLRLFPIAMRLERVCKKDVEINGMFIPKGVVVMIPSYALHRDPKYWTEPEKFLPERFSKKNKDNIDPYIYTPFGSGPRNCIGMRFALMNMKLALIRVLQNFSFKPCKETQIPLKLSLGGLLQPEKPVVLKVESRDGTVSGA

Compound	IC50 [1] [nM]	melting point	inhibition at 10 µM [2] [%]
O=C1N(C[C@H](O)CO)c2ccccc2C12COc1cc3c(cc12)OCCO3 (stereo partly drawn) [Example 40, 1′-[(2S)-2,3-dihydroxypropyl]-2,3-dihydrospiro[furo[2,3-g][1,4]benzodioxine-8,3′-indol]-2′(1′H)-one]	100 to 1000	179 to 181 °C	–
O=C(O)c1ccc(CN2C(=O)C3(COc4cc5c(cc43)OCCO5)c3ccccc32)o1 (stereo not shown) [Example 11.32, 5-[(2′-oxo-2,3-dihydrospiro[furo[2,3-g][1,4]benzodioxine-8,3′-indol]-1′(2′H)-yl)methyl]furan-2-carboxylic acid]	1000 to 10000	192 to 195 °C	–
COCC(=O)Nc1cccc2c1C1(COc3cc4c(cc31)OCCO4)C(=O)N2C (stereo not shown) [Example 16.28, 2-methoxy-N-(1′-methyl-2′-oxo-1′,2,2′,3-tetrahydrospiro[furo[2,3-g][1,4]benzodioxine-8,3′-indol]-4′-yl)acetamide]	–	237 to 239 °C	< 50
CN1C(=O)C2(COc3cc4c(cc32)OCCO4)c2c(C(=O)Nc3ccc(F)cc3)cccc21 (stereo not shown) [Example 16.47, N-(4-fluorophenyl)-1′-methyl-2′-oxo-1′,2,2′,3-tetrahydrospiro[furo[2,3-g][1,4]benzodioxine-8,3′-indole]-4′-carboxamide]	–	> 250 °C	< 50
CN1C(=O)C2(COc3cc4c(cc32)OCCO4)c2c(C(=O)NCc3ccc(F)cc3)cccc21 (stereo not shown) [Example 16.44, N-(4-fluorobenzyl)-1′-methyl-2′-oxo-1′,2,2′,3-tetrahydrospiro[furo[2,3-g][1,4]benzodioxine-8,3′-indole]-4′-carboxamide]	–	149 to 150 °C	< 50
CN1C(=O)C2(COc3cc4c(cc32)OCCO4)c2c(C(=O)NC3CCCCC3)cccc21 (stereo not shown) [Example 16.38, N-cyclohexyl-1′-methyl-2′-oxo-1′,2,2′,3-tetrahydrospiro[furo[2,3-g][1,4]benzodioxine-8,3′-indole]-4′-carboxamide]	–	139 to 140 °C	< 50
CN1C(=O)C2(COc3cc4c(cc32)OCCO4)c2c1cccc2-n1ccccc1=O (stereo not shown) [Example 16.18, 1′-methyl-4′-(2-oxopyridin-1(2H)-yl)-2,3-dihydrospiro[furo[2,3-g][1,4]benzodioxine-8,3′-indol]-2′(1′H)-one]	–	212 to 214 °C	< 50
CN1C(=O)C2(COc3cc4c(cc32)OCCO4)c2c(-c3cn[nH]c3)cccc21 (stereo not shown) [Example 16.69, 1′-methyl-4′-(1H-pyrazol-4-yl)-2,3-dihydrospiro[furo[2,3-g][1,4]benzodioxine-8,3′-indol]-2′(1′H)-one]	–	250 to 251 °C	< 50
CN1C(=O)C2(COc3cc4c(cc32)OCCO4)c2c(NC(=O)NC3CCCCC3)cccc21 (stereo not shown) [Example 16.37, 1-cyclohexyl-3-(1′-methyl-2′-oxo-1′,2,2′,3-tetrahydrospiro[furo[2,3-g][1,4]benzodioxine-8,3′-indol]-4′-yl)urea]	–	175 to 177 °C	< 50
CN1C(=O)C2(COc3cc4c(cc32)OCCO4)c2c(C(=O)NC3CCC3)cccc21 (stereo not shown) [Example 16.77, N-cyclobutyl-1′-methyl-2′-oxo-1′,2,2′,3-tetrahydrospiro[furo[2,3-g][1,4]benzodioxine-8,3′-indole]-4′-carboxamide]	–	128 to 129 °C	< 50
O=C1N(Cc2cnccc2C(F)(F)F)c2ccccc2C12COc1cc3c(cc12)OCCO3 (stereo not shown) [Example 5.12, 1′-{[4-(trifluoromethyl)pyridin-3-yl]methyl}-2,3-dihydrospiro[furo[2,3-g][1,4]benzodioxine-8,3′-indol]-2′(1′H)-one]	–	131 to 132 °C	> 50
CN1C(=O)[C@@]2(COc3cc4c(cc32)OCO4)c2c(Br)cccc21 [Example 16.63, (7R)-4′-bromo-1′-methylspiro[furo[2,3-f][1,3]benzodioxole-7,3′-indol]-2′(1′H)-one]	–	226 to 228 °C	> 50
CN1C(=O)C2(COc3cc4c(cc32)OCCO4)c2c(NC(=O)C(C)(C)C)cccc21 (stereo not shown) [Example 16.31, 2,2-dimethyl-N-(1′-methyl-2′-oxo-1′,2,2′,3-tetrahydrospiro[furo[2,3-g][1,4]benzodioxine-8,3′-indol]-4′-yl)propanamide]	–	182 to 184 °C	< 50
O=C1N(C[C@H]2COCCO2)c2ccccc2C12COc1cc3c(cc12)OCCCO3 (stereo partly drawn) [Example 8.13, 1′-[(2S)-1,4-dioxan-2-ylmethyl]-3,4-dihydro-2H-spiro[furo[2,3-h][1,5]benzodioxepine-9,3′-indol]-2′(1′H)-one]	–	137 to 139 °C	< 50
CCCCCCC(=O)Nc1cccc2c1C1(COc3cc4c(cc31)OCCO4)C(=O)N2C (stereo not shown) [Example 16.33, N-(1′-methyl-2′-oxo-1′,2,2′,3-tetrahydrospiro[furo[2,3-g][1,4]benzodioxine-8,3′-indol]-4′-yl)heptanamide]	–	123 to 124 °C	> 50
CN1C(=O)C2(COc3cc4c(cc32)OCCO4)c2c(C(=O)NC3CCCC3)cccc21 (stereo not shown) [Example 16.39, N-cyclopentyl-1′-methyl-2′-oxo-1′,2,2′,3-tetrahydrospiro[furo[2,3-g][1,4]benzodioxine-8,3′-indole]-4′-carboxamide]	–	135 to 136 °C	< 50
CCCCCCNC(=O)Nc1cccc2c1C1(COc3cc4c(cc31)OCCO4)C(=O)N2C (stereo not shown) [Example 16.35, 1-hexyl-3-(1′-methyl-2′-oxo-1′,2,2′,3-tetrahydrospiro[furo[2,3-g][1,4]benzodioxine-8,3′-indol]-4′-yl)urea]	–	154 to 155 °C	> 50
CCC(=O)Nc1cccc2c1C1(COc3cc4c(cc31)OCCO4)C(=O)N2C (stereo not shown) [Example 16.29, N-(1′-methyl-2′-oxo-1′,2,2′,3-tetrahydrospiro[furo[2,3-g][1,4]benzodioxine-8,3′-indol]-4′-yl)propanamide]	–	224 to 226 °C	< 50
O=C1Nc2cccc(-c3ccoc3)c2[C@]12COc1cc3c(cc12)OCO3 [Example 16.65, (7S)-4′-furan-3-ylspiro[furo[2,3-f][1,3]benzodioxole-7,3′-indol]-2′(1′H)-one]	–	230 to 231 °C	> 50
CN1C(=O)C2(COc3cc4c(cc32)OCCO4)c2c(NC(=O)NC3CCCC3)cccc21 (stereo not shown) [Example 16.36, 1-cyclopentyl-3-(1′-methyl-2′-oxo-1′,2,2′,3-tetrahydrospiro[furo[2,3-g][1,4]benzodioxine-8,3′-indol]-4′-yl)urea]	–	133 to 135 °C	< 50
CN1C(=O)C2(COc3cc4c(cc32)OCCO4)c2c(Oc3ccccn3)cccc21 (stereo not shown) [Example 16.53, 1′-methyl-4′-(pyridin-2-yloxy)-2,3-dihydrospiro[furo[2,3-g][1,4]benzodioxine-8,3′-indol]-2′(1′H)-one]	–	219 to 221 °C	> 50
CCCCCNC(=O)c1cccc2c1C1(COc3cc4c(cc31)OCCO4)C(=O)N2C (stereo not shown) [Example 16.42, 1′-methyl-2′-oxo-N-pentyl-1′,2,2′,3-tetrahydrospiro[furo[2,3-g][1,4]benzodioxine-8,3′-indole]-4′-carboxamide]	–	191 to 193 °C	< 50
CN1C(=O)C2(COc3cc4c(cc32)OCCO4)c2c(C(=O)Oc3ccccc3)cccc21 (stereo not shown) [Example 2.53, phenyl 1′-methyl-2′-oxo-1′,2,2′,3-tetrahydrospiro[furo[2,3-g][1,4]benzodioxine-8,3′-indole]-4′-carboxylate]	–	184 to 186 °C	> 50
COc1ccc(Oc2cccc3c2C2(COc4cc5c(cc42)OCCO5)C(=O)N3C)cc1 (stereo not shown) [Example 16.84, 4′-(4-methoxyphenoxy)-1′-methyl-2,3-dihydrospiro[furo[2,3-g][1,4]benzodioxine-8,3′-indol]-2′(1′H)-one]	–	55 to 58 °C	> 50
CN1C(=O)C2(COc3cc4c(cc32)OCCO4)c2c(-c3csc(N)n3)cccc21 (stereo not shown) [Example 26, 4′-(2-amino-1,3-thiazol-4-yl)-1′-methyl-2,3-dihydrospiro[furo[2,3-g][1,4]benzodioxine-8,3′-indol]-2′(1′H)-one]	–	233 to 234 °C (dec.)	> 50
CN1C(=O)C2(COc3cc4c(cc32)OCCO4)c2c(C(=O)N3CCCC3)cccc21 (stereo not shown) [Example 16.41, 1′-methyl-4′-(pyrrolidin-1-ylcarbonyl)-2,3-dihydrospiro[furo[2,3-g][1,4]benzodioxine-8,3′-indol]-2′(1′H)-one]	–	242 to 244 °C	< 50
CN1C(=O)C2(COc3cc4c(cc32)OCCO4)c2c(OCc3ncccc3C(F)(F)F)cccc21 (stereo not shown) [Example 16.58, 1′-methyl-4′-{[3-(trifluoromethyl)pyridin-2-yl]methoxy}-2,3-dihydrospiro[furo[2,3-g][1,4]benzodioxine-8,3′-indol]-2′(1′H)-one]	–	157 to 159 °C	> 50
CN1C(=O)C2(COc3cc4c(cc32)OCCO4)c2c(-c3cc(O)[nH]n3)cccc21 (stereo not shown) [Example 27, 4′-(5-hydroxy-1H-pyrazol-3-yl)-1′-methyl-2,3-dihydrospiro[furo[2,3-g][1,4]benzodioxine-8,3′-indol]-2′(1′H)-one]	–	> 250 °C	< 50
CN1C(=O)C2(COc3cc4c(cc32)OCCO4)c2c(Oc3ccc(C(F)(F)F)cc3)cccc21 (stereo not shown) [Example 16.56, 1′-methyl-4′-[4-(trifluoromethyl)phenoxy]-2,3-dihydrospiro[furo[2,3-g][1,4]benzodioxine-8,3′-indol]-2′(1′H)-one]	–	198 to 201 °C	> 50
